Assay results from US20090318465A1, “METHOD FOR IDENTIFYING COMPOUNDS THAT ACT AS INSULIN-SENSITIZERS” (priority 2006, published 2009).

What was measured:
[1] = tested on: dexamethasone treated insulin resistant 3T3-L1 adipocytes; test: Insulin resistance assay (IR assay), 14C-2-deoxyglucose uptake; format: cell-based, mouse; conditions: for % of Rosiglitazone (comparison with Rosiglitazone): test compound 10 μM/mL versus Rosiglitazone 0.1 μM; for Fold vehicle (fold activity over vehicle): test compound 10 μM/mL, glucose uptake with 200 nM insulin, vehicle = 1.0
Description: A suitable insulin resistance assay includes screening of compounds which act as insulin-sensitizers using chronically dexamethasone treated 3T3-L1 adipocytes as an in vitro model. This is a known model for studying insulin signaling and insulin resistance. Chronically dexamethasone treated 3T3-L1 adipocytes serve as a valid in vitro model of insulin resistance resembling diabetes patients.
In an embodiment, the method according to the present invention includes screening compounds identified as active in the phenotype-based assay against dexamethasone treated insulin resistant adipocytes. For example, the method can include applying actives from the insulin sensitivity assay at a concentration of 1-10 μM to the insulin resistant adipocytes for 1-4 days. The adipocytes were previously prepared for the assay by long term exposure to dexamethasone, for example, at 100 nM for about 24-48 hours.
The method can also include determining whether the compounds enhance glucose uptake in the insulin resistant adipocytes by more than 50% above that enhanced by insulin. The method can then include selecting compounds as active, if they caused 1.5 fold or more increase in glucose uptake compared to insulin treated adipocytes. Glucose uptake can be measured by any of a variety of known methods, such as measuring uptake of ^14C-labeled 2-deoxyglucose, a non metabolisable analogue of D-Glucose.
The assay was designed as in the reference, British Journal of Pharmacology, 130, 351-58, 2000, which is incorporated herein by reference for disclosure of the assay.
The solution of test compound (10 μM/mL) was prepared in DMSO.
Rosiglitazone (0.1 μM in DMSO) was used as standard.
Differentiation into adipocytes was induced by known methods as described below. (J. Biol. Chem., 260, 2646-2652, 1985, which is incorporated herein by reference for disclosure of the induction).
Culture medium containing […] 1-methyl-3-isobutylxanthine (IBMX), 0.25 μM dexamethasone, 5 μg/ml insulin (bovine/human), 10 mM HEPES buffer and fetal bovine serum (FBS) 10% by volume in Dulbecco's modified Eagle's medium (DMEM) was used for differentiation.
3T3 L1 fibroblasts were seeded in 24-well or 6-well plates at a density of 0.5-2×10^4 cells/well and were allowed to reach maximal confluency.
The confluent fibroblasts were exposed to culture medium for 2 days. After this period, fresh culture medium (DMEM) containing only insulin was used, 10% FBS was added and cultured for 4 days with change of medium every 2 days. After 7 days the cultures received DMEM containing 10% FBS with no exposure to insulin. By the end of 8-10 days, more than 95% of the cells have become differentiated into adipocytes.
The mature adipocytes were exposed to dexamethasone, 100 nM added in ethanol, in culture medium and incubated for 2 days. On the third day, solution of test compound was added along with 100 nM dexamethasone containing medium for 4 days with a change in medium after every 2 days. Vehicle control contained 1% v/v of DMSO. Rosiglitazone was used as a standard and was added at a concentration of 0.1 μM in DMSO, along with 100 nM dexamethasone containing medium for 4 days with a change in medium after every 2 days. After a total period of 6 days, the cells were processed for glucose uptake as follows.
The insulin resistant adipocytes were exposed to serum-free DMEM containing 0.1% bovine serum albumin for 3-4 hours at 37° C. in CO2 atmosphere. The test compound was also present during this period. After 3-4 hours, the medium was aspirated and replaced with Kreb's Ringer phosphate (KRP) buffer at pH 7.4 and with human/porcine insulin, 200 nM. The cells were incubated for 30 minutes at 37° C. At the end of 30 minutes, 0.05 or 0.1 μCi of ^14C-2-deoxyglucose was added to each well of either 24-well or 6-well plates respectively and was incubated for exactly 5 minutes. After exactly 5 minutes, the plates were transferred to ice trays and medium was rapidly aspirated. […]

[2] = tested on: 3T3 L1 fibroblasts; test: Adipogenesis assay (phenotype-based primary screen); format: cell-based, mouse; conditions: test compound 20 μg/ml plus 5 μg/ml insulin, 8 days
Procedure: The phenotype-based assay used for screening the test compounds in the first screening step is an adipogenesis assay. Any of a variety of adipogenesis assays can be employed. Suitable adipogenesis assays can employ fibroblasts 3T3-L1, which can be derived from mouse and insulin, for example, of either human, porcine or bovine origin. The test compounds can be dissolved at a suitable concentration (e.g., 20 μg/ml) in a suitable solvent such as DMSO. Fibroblasts can be grown in 96-well plates containing sufficient cells, for example 5×10^4 cells/well, that are cultured in nutrient medium along with 5 μg/ml of insulin. After 3 days of incubation in CO2 incubators at 37° C., the nutrient medium with compounds is removed and fresh medium is exposed to the cells. After 8 days, the ability of compounds to potentiate insulin effect on transformation into fat filled cells, adipocytes, was assessed by observing under an inverted microscope. The lipid droplets are stained with Oil red O and percentage of stained cells is determined (e.g., estimated).
Compounds that caused the formation of adipocytes by more than 5 times the vehicle are termed as actives.
The assay was designed as in the reference J. Bio. […]
At the end of 8 days, the number of fat filled adipocytes formed in each well was assessed by observing under microscope. […]

[3] = tested on: genetically diabetic db/db BL/6J mice; test: Screening in db/db BL/6J mice, plasma glucose reduction; format: in vivo; conditions: 150 mpk od, 10 days
Procedure: In an embodiment, the method includes selecting 6-8 weeks old male db/db mice based on blood glucose levels determined after withholding feed for four hours. For example, the method can employ animals with plasma glucose levels in a suitable range, such as 300-500 mg/dl. The selected mice can be orally dosed with test (lead) compound, for example, in 0.5% carboxy methyl cellulose (CMC) vehicle at a suitable frequency and for a suitable time, such as twice daily for 10 consecutive days. This embodiment of the method can include obtaining blood on, for example, day 5 and day 10, after withholding feed for four hours, and determining plasma glucose levels. These levels can be determined using enzymatic methods (e.g., Diasys kit, Germany) in an autoanalyser. Lead compounds are considered to be in vivo actives if they produce statistically significant fall in plasma glucose on day 10 compared to mice treated with 0.5% CMC vehicle. Rosiglitazone can be used as a standard at 5 mg per kg (mpk) bid for comparison with test compounds.
The protocol was designed as in references. • 1.
The screening of compounds was based on their ability to reduce the plasma glucose levels in genetically diabetic db/db BL/6J mice.
Male db/db mice (obtained from the Animal House of Nicholas Piramal Research Centre, Goregaon, Mumbai, India) were used for this study (body weight in the range of 30-40 g and age is 6-8 weeks) and were kept eight per cage in individually ventilated cages at controlled temperature (22±1° C.) and humidity (45±5%). Food and water were provided ad libitum during their laboratory stay, except for four hours fasting prior to blood sample collection. 12 hours light and dark cycle was followed during the whole study period.
After 4 hours fasting blood samples were collected from mice. Mice showing plasma glucose levels between 300 to 500 mg/dl were divided in groups (8-10 per group) such that the mean plasma glucose levels and variation within the group, for each group, is nearly same. After grouping, mice in respective groups received treatment with 0.5% CMC vehicle, standard compound or test compounds for 10 days. Rosiglitazone was used as a standard.
After 4 hours fasting, mice were anaesthetized using isoflurane (inhalation anesthetic), and blood samples were collected through the retro orbital plexus. Collected blood samples were centrifuged at 7000 rpm for 10 minutes at 4° C.; Separated plasma was used for estimation of plasma glucose using diagnostic kits (Diasys, Germany). Plasma glucose levels of treated groups were normalized with control group using the following formula, which accounted for the changes in control group.

[4] = tested on: db/db mice; test: Evaluation of lipid levels (dyslipidemia) in db/db mice; format: in vivo; conditions: doses higher than 50 mpk oral bid, 15 days
Procedure: Body weight was measured daily. On day 15, the animals were deprived of food for 4 hours after the last dose administration. Blood was collected at the end of the 4-hour period using heparinised capillaries by a retro-orbital puncture. Plasma samples were analyzed for, triglyceride and cholesterol, using the autoanalyser.
The assay was designed as in the reference, Metabolism, 49 (1), 22-31, 2000, the disclosure of which is incorporated by reference for the teaching of the assay.
Seven groups of male db/db mice (8 animals per group) were used. […] Body weight was measured daily. On day 15, the animals were deprived of food for 4 hours after the last dose administration. Blood was collected at the end of the 4-hour period using heparinised capillaries by a retro-orbital puncture. Plasma samples were analyzed for glucose, triglyceride, cholesterol, using the autoanalyser.

For `CCOC(=O)c1ccc(C(=N)NC(=O)OC)cc1C` [Compound 9, 4-(Imino-methoxycarbonylaminomethyl)-2-methyl-benzoic acid ethyl ester], the “activity in insulin resistance assay (cut off 1.5-fold of vehicle)” value ([1]; insulin resistant adipocytes, glucose uptake) was “inactive”, the “% of Rosiglitazone (comparison with Rosiglitazone)” value [1] was “NIL” and the “Fold vehicle (fold activity over vehicle)” value [1] was 1.01 ± 0.27. The “activity in adipogenesis assay (active = adipocytes more than 5 times the vehicle)” value [2] was “inactive”.
With `O=S(=O)(Nc1cnc(Oc2cc3ccccc3cn2)c(Cl)c1)c1ccc(Cl)cc1Cl` [Compound 5, 2,4-Dichloro-N-[5-chloro-6-(isoquinolin-3-yloxy)pyridin-3-yl]-benzene sulfonamide] the “% of Rosiglitazone (comparison with Rosiglitazone)” value [1] was 78.7 ± 3.5%, the “Fold vehicle (fold activity over vehicle)” value [1] was 2.41 ± 0.06 and the “Normalization with control (plasma glucose reduction)” value [3] was 43.2 ± 15.7. The “reduction in cholesterol levels” value [4] was 26%.
